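A five-concentration, 48-hour dose response in 96-well plates underlies each endpoint, interpolated linearly between surrounding concentrations. TGI denotes the concentration required for complete inhibition of growth.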

The values below come from PubChem BioAssay (NCI).

Test systems include K-562 leukemia; M14 melanoma; BT-549 breast; PC-3 prostate; SK-MEL-28 melanoma; SR leukemia; 786-0 renal; OVCAR-4 ovarian.
Common to all, as to test: inhibition of tumour cell growth, NCI panel, 48 h

`OC(c1ccco1)C(F)(F)c1nc2ccccc2o1` (configuration not stated): the TGI in the assay on K-562 leukemia, with M14 melanoma, with BT-549 breast, in the assay on PC-3 prostate, in the assay on SK-MEL-28 melanoma and in the assay with SR leukemia was over 100 µM each time. For the same compound, the TGI with 786-0 renal and with OVCAR-4 ovarian was over 100 µM each time.

As for `COC(=O)C1=C(C(=O)OC)C2(C)CCC(=O)C1O2` (configuration not stated), the TGI in the assay on K-562 leukemia, with M14 melanoma, with BT-549 breast, in the assay with PC-3 prostate, in the assay with SK-MEL-28 melanoma and in the assay with SR leukemia was over 10 µM throughout. Besides, the TGI in the assay with 786-0 renal and in the assay on OVCAR-4 ovarian was over 10 µM in each case.

On to `CCCC[C@@H]1CCN2C[C@@H](O)[C@@H](O)[C@H]2[C@@H]1O`, for which the TGI in the assay on K-562 leukemia, in the assay with M14 melanoma, in the assay on BT-549 breast, in the assay on PC-3 prostate, with SK-MEL-28 melanoma and with 786-0 renal was over 100 µM in each case. The same compound registered a TGI with OVCAR-4 ovarian of over 100 µM.

With `COc1ccc(CCCCl)c(C2=NCCc3ccccc32)c1`, the TGI in the assay with K-562 leukemia, with M14 melanoma, in the assay on BT-549 breast, in the assay on PC-3 prostate, with SK-MEL-28 melanoma and in the assay on SR leukemia was over 100 µM in each case. In addition, the TGI with 786-0 renal and with OVCAR-4 ovarian was over 100 µM each time.

In the case of `CCOP(=O)(OCC)c1cc(-c2ccccc2)ccc1N`, the TGI in the assay on K-562 leukemia, in the assay with M14 melanoma, in the assay on BT-549 breast, with PC-3 prostate, in the assay on SK-MEL-28 melanoma and in the assay on 786-0 renal was over 100 µM throughout. Moreover, the TGI in the assay on OVCAR-4 ovarian was over 100 µM.

With `Cc1ccsc1C(=S)Nc1ccc(Cl)c(C(=O)OC(C(C)C)C(C)C)c1`, the TGI was over 100 µM in the assay with K-562 leukemia; over 100 µM in the assay with M14 melanoma; 61.4 µM in the assay with BT-549 breast; 61.8 µM with PC-3 prostate; over 100 µM in the assay on SK-MEL-28 melanoma; over 100 µM in the assay with 786-0 renal. In the assay with OVCAR-4 ovarian, the TGI is over 100 µM.

As to `COc1cc2c(cc1O)CC[n+]1cc3c(OC)c(OC)ccc3cc1-2`, the TGI in the assay with K-562 leukemia, in the assay with M14 melanoma, with BT-549 breast, in the assay on PC-3 prostate, in the assay with SK-MEL-28 melanoma and in the assay on 786-0 renal was over 100 µM throughout. The TGI with OVCAR-4 ovarian was over 100 µM.

On to `Cc1ccc(C(=O)c2[nH]c(Nc3cc(C)ccn3)c(C(=S)Nc3ccccc3)c2N)cc1`, for which the TGI in the assay with K-562 leukemia, with M14 melanoma, in the assay with BT-549 breast, in the assay on SK-MEL-28 melanoma, in the assay with SR leukemia and in the assay with 786-0 renal was over 100 µM in each case. The compound also had a TGI in the assay on OVCAR-4 ovarian of over 100 µM.

In the case of `C(=N/Nc1ccc(-c2nc3ccccc3[nH]2)cc1)/c1c(-c2ccccc2)[nH]c2ccccc12`, the TGI in the assay with K-562 leukemia was 11.9 µM; with M14 melanoma, over 100 µM; in the assay on PC-3 prostate, 3.92 µM; in the assay on SK-MEL-28 melanoma it was over 100 µM; in the assay on SR leukemia it was 17.1 µM; in the assay on 786-0 renal, over 100 µM. Further, in the assay with OVCAR-4 ovarian, the TGI is over 100 µM.

`COc1cc(-c2c3c(cc4c2OCO4)[C@@H](Nc2ccc4c(c2)Cc2cc(N[C@@H]5c6cc7c(cc6C(c6cc(OC)c(O)c(OC)c6)[C@H]6C(=O)OC[C@H]56)OCO7)ccc2-4)[C@H]2COC(=O)[C@@H]2C3)cc(OC)c1O` (some centres not stated): the TGI with M14 melanoma turned out to be 50.3 µM; in the assay with BT-549 breast, 94.5 µM; in the assay with PC-3 prostate, 47 µM; in the assay on SK-MEL-28 melanoma it was 70 µM; in the assay with SR leukemia, 56.5 µM; with 786-0 renal, 63.7 µM.

As for `CC12CCC(C/C1=N\NC(N)=O)C2(C)C` (configuration not stated), the TGI with K-562 leukemia, with M14 melanoma, in the assay with BT-549 breast, with PC-3 prostate, in the assay on SK-MEL-28 melanoma and in the assay on SR leukemia was over 100 µM in each case. The TGI with 786-0 renal and in the assay on OVCAR-4 ovarian was over 100 µM in each case.

Take `CN(C)c1nc(=NCc2ccccn2)ss1`: the TGI in the assay with K-562 leukemia was over 9.63 µM; with M14 melanoma it was over 10 µM; with PC-3 prostate it was over 10 µM; in the assay on SK-MEL-28 melanoma, over 10 µM; with SR leukemia, 4.75 µM; with 786-0 renal, over 5.57 µM. The TGI in the assay with OVCAR-4 ovarian was over 10 µM.

On to `CCOC(=O)c1c(NC(=S)Nc2ccc(C)cc2)sc2c1CCN(C)C2`, for which the TGI in the assay on K-562 leukemia, in the assay on M14 melanoma, in the assay on BT-549 breast, in the assay with PC-3 prostate and in the assay with 786-0 renal was over 100 µM each time.

In the case of `CCOC1NC(=O)c2ccccc21` (configuration not stated), the TGI in the assay on K-562 leukemia, with M14 melanoma, with BT-549 breast, with PC-3 prostate, in the assay with SK-MEL-28 melanoma and with SR leukemia was over 100 µM in each case. Moreover, the TGI in the assay on 786-0 renal and with OVCAR-4 ovarian was over 100 µM throughout.

In the case of `FC(F)=C(c1ccc(-c2ccc(Cl)cc2)cc1)C(F)(F)F`, the TGI with K-562 leukemia was determined as 71.9 µM; with M14 melanoma, 36.1 µM; in the assay on BT-549 breast, 39.3 µM; in the assay on PC-3 prostate, 32.5 µM; with SK-MEL-28 melanoma, 28.4 µM; with SR leukemia it was 52.4 µM. Further, the figures for the TGI in the assay with 786-0 renal and with OVCAR-4 ovarian were 37.8 µM and 33.5 µM, respectively.

In the case of `Brc1ccc2c(c1)-c1nc3c(cc1CC2)CCc1ccc(Br)cc1-3`, the TGI in the assay on K-562 leukemia, in the assay with M14 melanoma, in the assay on BT-549 breast, in the assay on PC-3 prostate, with SK-MEL-28 melanoma and with 786-0 renal was over 100 µM in each case. In the assay with OVCAR-4 ovarian, this compound returned a TGI of over 100 µM.

For the compound `COc1ccc(/C=N/Nc2nc3ccccc3c(=O)n2-c2ccccc2)c(OCc2ccccc2)c1`, the TGI in the assay on K-562 leukemia, in the assay on M14 melanoma, with PC-3 prostate, in the assay on SK-MEL-28 melanoma, in the assay on SR leukemia and in the assay on 786-0 renal was over 100 µM each time. Also, in the assay on OVCAR-4 ovarian, the TGI is over 100 µM.
